The values below come from PMC5580309, “Molecular-scale features that govern the effects of O-glycosylation on a carbohydrate-binding module” (Chemical Science, 2015).

This data set deals with T1, thermolysin (Bacillus thermoproteolyticus, UniProt P00800).
T1 sequence (P00800 233-548): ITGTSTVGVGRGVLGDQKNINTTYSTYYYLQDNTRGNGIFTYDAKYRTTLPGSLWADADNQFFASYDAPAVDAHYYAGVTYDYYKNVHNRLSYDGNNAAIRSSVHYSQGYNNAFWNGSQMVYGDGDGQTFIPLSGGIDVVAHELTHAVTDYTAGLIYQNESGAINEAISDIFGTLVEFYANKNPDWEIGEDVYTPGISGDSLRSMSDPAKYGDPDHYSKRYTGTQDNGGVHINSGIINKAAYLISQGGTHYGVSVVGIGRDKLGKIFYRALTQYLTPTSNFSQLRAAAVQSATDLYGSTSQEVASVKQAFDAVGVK
Briefly: Proteolytic stability: half-life to thermolysin degradation. Conditions: for half-life: thermolysin (isolated protease), thermolysin degradation, mean of three trials ± SD, procedures as described previously (ESI ref 18); for Change in Half-Life to Thermolysin Degradation: glyco-variant minus its corresponding unglycosylated CBM (e.g. 2-1), *** not used in the correlation plot. It counts as in vitro ADME. The protocol:
All error bars reported are standard deviations of data achieved from three separate trials.
cellulose that were determined in accordance with our procedures as described previously 18.
The results are presented as mean of three trials ± SD. *Denotes an averaged value of four trials

Bridge positions count the residues as written; N and C are the ends. Peptide text beside a SMILES is read from it. * marks the point of attachment. X2 = OC[C@H]1O[C@H](O[C@H]2[C@@H](O)[C@H](O)[C@@H](CO)O[C@@H]2*)[C@@H](O)[C@@H](O)[C@@H]1O; αMan = OC[C@H]1O[C@H](*)[C@@H](O)[C@@H](O)[C@@H]1O

A word on the half-life: it is the time in which the quantity being followed falls by half. The low end stands for fast loss, the high end for slow loss. `CC[C@H](C)[C@@H]1NC(=O)CNC(=O)CNC(=O)[C@@H](NC(=O)[C@H](CCC(N)=O)NC(=O)CNC(=O)[C@H](Cc2ccc(O)cc2)NC(=O)[C@H](Cc2c[nH]cn2)NC(=O)[C@H](CO)NC(=O)[C@H](CCC(N)=O)NC(=O)[C@@H](N)[C@@H](C)O)CSSC[C@@H]2NC(=O)[C@H]([C@@H](C)O)NC(=O)[C@H]([C@@H](C)O)NC(=O)CNC(=O)[C@H](CO)NC(=O)[C@H](C)NC(=O)[C@H](CSSC[C@@H](C(=O)N[C@@H](CC(C)C)C(=O)O)NC(=O)[C@H](CCC(N)=O)NC(=O)[C@H](CO)NC(=O)[C@H](Cc3ccc(O)cc3)NC(=O)[C@H](Cc3ccc(O)cc3)NC(=O)[C@@H]3CCCN3C(=O)[C@H](CC(N)=O)NC(=O)[C@H](CC(C)C)NC(=O)[C@H](C(C)C)NC(=O)[C@H](CCC(N)=O)NC2=O)NC(=O)[C@H](C(C)C)NC(=O)[C@H]([C@@H](C)O)NC(=O)[C@@H]2CCCN2C(=O)CNC(=O)[C@H](CO)NC(=O)[C@H](Cc2ccc(O)cc2)NC(=O)CNC1=O` [CBM variant 1] (H-TQSHYGQCGGIGYSGPTVCASGTTCQVLNPYYSQCL-OH; disulfide 8-25, 19-35) showed a half-life of 13.8 ± 1.2 min. Take `CC[C@H](C)[C@@H]1NC(=O)CNC(=O)CNC(=O)[C@@H](NC(=O)[C@H](CCC(N)=O)NC(=O)CNC(=O)[C@H](Cc2ccc(O)cc2)NC(=O)[C@H](Cc2c[nH]cn2)NC(=O)[C@H](CO[C@H]2O[C@H](CO)[C@@H](O)[C@H](O)[C@@H]2O)NC(=O)[C@H](CCC(N)=O)NC(=O)[C@@H](N)[C@@H](C)O)CSSC[C@@H]2NC(=O)[C@H]([C@@H](C)O)NC(=O)[C@H]([C@@H](C)O)NC(=O)CNC(=O)[C@H](CO)NC(=O)[C@H](C)NC(=O)[C@H](CSSC[C@@H](C(=O)N[C@@H](CC(C)C)C(=O)O)NC(=O)[C@H](CCC(N)=O)NC(=O)[C@H](CO)NC(=O)[C@H](Cc3ccc(O)cc3)NC(=O)[C@H](Cc3ccc(O)cc3)NC(=O)[C@@H]3CCCN3C(=O)[C@H](CC(N)=O)NC(=O)[C@H](CC(C)C)NC(=O)[C@H](C(C)C)NC(=O)[C@H](CCC(N)=O)NC2=O)NC(=O)[C@H](C(C)C)NC(=O)[C@H]([C@@H](C)O)NC(=O)[C@@H]2CCCN2C(=O)CNC(=O)[C@H](CO)NC(=O)[C@H](Cc2ccc(O)cc2)NC(=O)CNC1=O` [CBM variant 2] (H-TQS(αMan)HYGQCGGIGYSGPTVCASGTTCQVLNPYYSQCL-OH; disulfide 8-25, 19-35): the “Change in Half-Life to Thermolysin Degradation” value (shortened to “Change in Half-Life”) is 51.6 min and the half-life was 65.4 ± 0.6 min. With `CC[C@H](C)[C@@H]1NC(=O)CNC(=O)CNC(=O)[C@@H](NC(=O)[C@H](CCC(N)=O)NC(=O)CNC(=O)[C@H](Cc2ccc(O)cc2)NC(=O)[C@H](Cc2c[nH]cn2)NC(=O)[C@H](CO[C@H]2O[C@H](CO)[C@@H](O)[C@H](O)[C@@H]2O[C@H]2O[C@H](CO)[C@@H](O)[C@H](O)[C@@H]2O)NC(=O)[C@H](CCC(N)=O)NC(=O)[C@@H](N)[C@@H](C)O)CSSC[C@@H]2NC(=O)[C@H]([C@@H](C)O)NC(=O)[C@H]([C@@H](C)O)NC(=O)CNC(=O)[C@H](CO)NC(=O)[C@H](C)NC(=O)[C@H](CSSC[C@@H](C(=O)N[C@@H](CC(C)C)C(=O)O)NC(=O)[C@H](CCC(N)=O)NC(=O)[C@H](CO)NC(=O)[C@H](Cc3ccc(O)cc3)NC(=O)[C@H](Cc3ccc(O)cc3)NC(=O)[C@@H]3CCCN3C(=O)[C@H](CC(N)=O)NC(=O)[C@H](CC(C)C)NC(=O)[C@H](C(C)C)NC(=O)[C@H](CCC(N)=O)NC2=O)NC(=O)[C@H](C(C)C)NC(=O)[C@H]([C@@H](C)O)NC(=O)[C@@H]2CCCN2C(=O)CNC(=O)[C@H](CO)NC(=O)[C@H](Cc2ccc(O)cc2)NC(=O)CNC1=O` [CBM variant 3] (H-TQS(X2)HYGQCGGIGYSGPTVCASGTTCQVLNPYYSQCL-OH; disulfide 8-25, 19-35), the “Change in Half-Life” value stood at 114 min and the half-life is 128 ± 3.6 min. `CC[C@H](C)[C@@H]1NC(=O)CNC(=O)CNC(=O)[C@@H](NC(=O)[C@H](CCC(N)=O)NC(=O)CNC(=O)[C@H](Cc2ccc(O)cc2)NC(=O)[C@H](Cc2c[nH]cn2)NC(=O)[C@H](CO)NC(=O)[C@H](CCC(N)=O)NC(=O)[C@H](C)N)CSSC[C@@H]2NC(=O)[C@H]([C@@H](C)O)NC(=O)[C@H]([C@@H](C)O)NC(=O)CNC(=O)[C@H](CO)NC(=O)[C@H](C)NC(=O)[C@H](CSSC[C@@H](C(=O)N[C@@H](CC(C)C)C(=O)O)NC(=O)[C@H](CCC(N)=O)NC(=O)[C@H](CO)NC(=O)[C@H](Cc3ccc(O)cc3)NC(=O)[C@H](Cc3ccc(O)cc3)NC(=O)[C@@H]3CCCN3C(=O)[C@H](CC(N)=O)NC(=O)[C@H](CC(C)C)NC(=O)[C@H](C(C)C)NC(=O)[C@H](CCC(N)=O)NC2=O)NC(=O)[C@H](C(C)C)NC(=O)[C@H]([C@@H](C)O)NC(=O)[C@@H]2CCCN2C(=O)CNC(=O)[C@H](CO)NC(=O)[C@H](Cc2ccc(O)cc2)NC(=O)CNC1=O` [CBM variant 4] (H-AQSHYGQCGGIGYSGPTVCASGTTCQVLNPYYSQCL-OH; disulfide 8-25, 19-35) had a half-life of 9.6 ± 1.2 min. Regarding `CC[C@H](C)[C@@H]1NC(=O)CNC(=O)CNC(=O)[C@@H](NC(=O)[C@H](CCC(N)=O)NC(=O)CNC(=O)[C@H](Cc2ccc(O)cc2)NC(=O)[C@H](Cc2c[nH]cn2)NC(=O)[C@H](CO[C@H]2O[C@H](CO)[C@@H](O)[C@H](O)[C@@H]2O)NC(=O)[C@H](CCC(N)=O)NC(=O)[C@H](C)N)CSSC[C@@H]2NC(=O)[C@H]([C@@H](C)O)NC(=O)[C@H]([C@@H](C)O)NC(=O)CNC(=O)[C@H](CO)NC(=O)[C@H](C)NC(=O)[C@H](CSSC[C@@H](C(=O)N[C@@H](CC(C)C)C(=O)O)NC(=O)[C@H](CCC(N)=O)NC(=O)[C@H](CO)NC(=O)[C@H](Cc3ccc(O)cc3)NC(=O)[C@H](Cc3ccc(O)cc3)NC(=O)[C@@H]3CCCN3C(=O)[C@H](CC(N)=O)NC(=O)[C@H](CC(C)C)NC(=O)[C@H](C(C)C)NC(=O)[C@H](CCC(N)=O)NC2=O)NC(=O)[C@H](C(C)C)NC(=O)[C@H]([C@@H](C)O)NC(=O)[C@@H]2CCCN2C(=O)CNC(=O)[C@H](CO)NC(=O)[C@H](Cc2ccc(O)cc2)NC(=O)CNC1=O` [CBM variant 5] (H-AQS(αMan)HYGQCGGIGYSGPTVCASGTTCQVLNPYYSQCL-OH; disulfide 8-25, 19-35), the “Change in Half-Life” value amounted to 34.8 min and the half-life was 44.4 ± 7.2 min. The molecule `CC[C@H](C)[C@@H]1NC(=O)CNC(=O)CNC(=O)[C@@H](NC(=O)[C@H](CCC(N)=O)NC(=O)CNC(=O)[C@H](Cc2ccc(O)cc2)NC(=O)[C@H](Cc2c[nH]cn2)NC(=O)[C@H](CO)NC(=O)[C@H](C)NC(=O)[C@@H](N)[C@@H](C)O)CSSC[C@@H]2NC(=O)[C@H]([C@@H](C)O)NC(=O)[C@H]([C@@H](C)O)NC(=O)CNC(=O)[C@H](CO)NC(=O)[C@H](C)NC(=O)[C@H](CSSC[C@@H](C(=O)N[C@@H](CC(C)C)C(=O)O)NC(=O)[C@H](CCC(N)=O)NC(=O)[C@H](CO)NC(=O)[C@H](Cc3ccc(O)cc3)NC(=O)[C@H](Cc3ccc(O)cc3)NC(=O)[C@@H]3CCCN3C(=O)[C@H](CC(N)=O)NC(=O)[C@H](CC(C)C)NC(=O)[C@H](C(C)C)NC(=O)[C@H](CCC(N)=O)NC2=O)NC(=O)[C@H](C(C)C)NC(=O)[C@H]([C@@H](C)O)NC(=O)[C@@H]2CCCN2C(=O)CNC(=O)[C@H](CO)NC(=O)[C@H](Cc2ccc(O)cc2)NC(=O)CNC1=O` [CBM variant 6] (H-TASHYGQCGGIGYSGPTVCASGTTCQVLNPYYSQCL-OH; disulfide 8-25, 19-35) had a half-life of 9.6 ± 2.4 min.

Take `CC[C@H](C)[C@@H]1NC(=O)CNC(=O)CNC(=O)[C@@H](NC(=O)[C@H](CCC(N)=O)NC(=O)CNC(=O)[C@H](Cc2ccc(O)cc2)NC(=O)[C@H](Cc2c[nH]cn2)NC(=O)[C@H](CO[C@H]2O[C@H](CO)[C@@H](O)[C@H](O)[C@@H]2O)NC(=O)[C@H](C)NC(=O)[C@@H](N)[C@@H](C)O)CSSC[C@@H]2NC(=O)[C@H]([C@@H](C)O)NC(=O)[C@H]([C@@H](C)O)NC(=O)CNC(=O)[C@H](CO)NC(=O)[C@H](C)NC(=O)[C@H](CSSC[C@@H](C(=O)N[C@@H](CC(C)C)C(=O)O)NC(=O)[C@H](CCC(N)=O)NC(=O)[C@H](CO)NC(=O)[C@H](Cc3ccc(O)cc3)NC(=O)[C@H](Cc3ccc(O)cc3)NC(=O)[C@@H]3CCCN3C(=O)[C@H](CC(N)=O)NC(=O)[C@H](CC(C)C)NC(=O)[C@H](C(C)C)NC(=O)[C@H](CCC(N)=O)NC2=O)NC(=O)[C@H](C(C)C)NC(=O)[C@H]([C@@H](C)O)NC(=O)[C@@H]2CCCN2C(=O)CNC(=O)[C@H](CO)NC(=O)[C@H](Cc2ccc(O)cc2)NC(=O)CNC1=O` [CBM variant 7] (H-TAS(αMan)HYGQCGGIGYSGPTVCASGTTCQVLNPYYSQCL-OH; disulfide 8-25, 19-35): the “Change in Half-Life” value amounted to 6.6 min and the half-life was 16.2 ± 3 min.

On to `CC[C@H](C)[C@@H]1NC(=O)CNC(=O)CNC(=O)[C@@H](NC(=O)[C@H](CCC(N)=O)NC(=O)CNC(=O)[C@H](Cc2ccc(O)cc2)NC(=O)[C@H](C)NC(=O)[C@H](CO)NC(=O)[C@H](CCC(N)=O)NC(=O)[C@@H](N)[C@@H](C)O)CSSC[C@@H]2NC(=O)[C@H]([C@@H](C)O)NC(=O)[C@H]([C@@H](C)O)NC(=O)CNC(=O)[C@H](CO)NC(=O)[C@H](C)NC(=O)[C@H](CSSC[C@@H](C(=O)N[C@@H](CC(C)C)C(=O)O)NC(=O)[C@H](CCC(N)=O)NC(=O)[C@H](CO)NC(=O)[C@H](Cc3ccc(O)cc3)NC(=O)[C@H](Cc3ccc(O)cc3)NC(=O)[C@@H]3CCCN3C(=O)[C@H](CC(N)=O)NC(=O)[C@H](CC(C)C)NC(=O)[C@H](C(C)C)NC(=O)[C@H](CCC(N)=O)NC2=O)NC(=O)[C@H](C(C)C)NC(=O)[C@H]([C@@H](C)O)NC(=O)[C@@H]2CCCN2C(=O)CNC(=O)[C@H](CO)NC(=O)[C@H](Cc2ccc(O)cc2)NC(=O)CNC1=O` [CBM variant 8] (H-TQSAYGQCGGIGYSGPTVCASGTTCQVLNPYYSQCL-OH; disulfide 8-25, 19-35), for which the half-life is 13.2 ± 3.6 min.
